Results on 16 compounds are retold here after patent US9073855B2, “BCL-2 selective apoptosis-inducing agents for the treatment of cancer and immune diseases” (AbbVie Inc., priority 2008, dated 2015).

The target of one experiment is GST-Bcl-2 (Homo sapiens, UniProt P10415). Put plainly: TR-FRET binding assay, GST-Bcl-2 with F-Bak peptide probe. The following applies: TR-FRET Binding Affinity, GST-Bcl-2, F-Bak peptide probe. In a few lines:
(§1)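 Competitive TR-FRET: GST-fusion protein, fluorescent Bak peptide probe and Tb-labelled anti-GST antibody incubated with compound dilution series (starting 50 μM as 2× stock, 10% DMSO) for 3 h at RT. Excitation 340/35 nm; Ki derived via Wang's exact competitive-binding equation.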
On the technique in general: In TR-FRET formats the signal depends on donor and acceptor labels being close together.

The next experiment addresses GST-Bcl-XL (Homo sapiens, UniProt Q07817). Description: TR-FRET binding assay, GST-Bcl-XL with F-Bak peptide probe. The following applies: TR-FRET Binding Affinity, GST-Bcl-XL, F-Bak peptide probe. The gist of the method: as §1
The subject of a further experiment is FL5.12/Bcl-2 cells. Description: FL5.12/Bcl-2 cell viability assay under IL-3 withdrawal (CellTitre Glo). Format: cell-based, murine. The following applies: Mus musculus, IL-3 withdrawn 48 hrs, then 24 hrs with compound. In a few lines:
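Murine IL-3-dependent FL5.12 cells stably overexpressing Bcl-2 were deprived of IL-3 (WEHI-3B conditioned medium) for 48 h, then exposed to various compound concentrations for 24 h at 37 °C. Viability read by CellTiter-Glo luminescence.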

The structures appear in SMILES notation.

GST-Bcl-2, sequence (P10415 whole entry, the tested form may be a part): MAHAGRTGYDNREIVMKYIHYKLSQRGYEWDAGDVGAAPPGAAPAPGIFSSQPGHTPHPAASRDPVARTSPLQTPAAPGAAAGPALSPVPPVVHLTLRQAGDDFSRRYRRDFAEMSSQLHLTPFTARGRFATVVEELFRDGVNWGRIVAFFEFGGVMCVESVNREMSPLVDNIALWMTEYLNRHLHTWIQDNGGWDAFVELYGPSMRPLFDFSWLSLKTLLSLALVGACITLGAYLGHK
GST-Bcl-XL, sequence (Q07817 whole entry): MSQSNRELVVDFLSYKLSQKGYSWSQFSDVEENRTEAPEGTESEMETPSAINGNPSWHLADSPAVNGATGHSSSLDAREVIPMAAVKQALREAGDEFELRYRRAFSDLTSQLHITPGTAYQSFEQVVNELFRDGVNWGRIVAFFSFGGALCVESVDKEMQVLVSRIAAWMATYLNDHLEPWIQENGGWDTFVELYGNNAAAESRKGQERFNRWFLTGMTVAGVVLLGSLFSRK

A word on the Ki: it is a dissociation constant, usually derived from enzyme kinetics or from competition with a known ligand. Lower therefore signals a stronger hold on the target. The term EC50 denotes the concentration needed to bring the measured effect to its halfway point. Take `CC1(C)CCC(CN2CCN(c3ccc(C(=O)NS(=O)(=O)c4ccc(NCCCN5CCS(=O)(=O)CC5)c([N+](=O)[O-])c4)c(Oc4cccc5[nH]ccc45)c3)CC2)=C(c2ccc(Cl)cc2)C1` [Example 295, 4-(4-{[2-(4-chlorophenyl)-4,4-dimethylcyclohex-1-en-1-yl]methyl}piperazin-1-yl)-N-[(4-{[3-(1,1-dioxidothiomorpholin-4-yl)propyl]amino}-3-nitrophenyl)sulfonyl]-2-(1H-indol-4-yloxy)benzamide]: the Ki is 0.183 nM at GST-Bcl-2 and 110 nM at GST-Bcl-XL. In addition, the EC50 in the experiment on FL5.12/Bcl-2 cells was determined as 46.3 nM.
Take `CC1(C)CCC(CN2CCN(c3ccc(C(=O)NS(=O)(=O)c4ccc(CCC5CCOCC5)c([N+](=O)[O-])c4)c(Oc4ccc5[nH]ccc5c4)c3)CC2)=C(c2ccc(Cl)cc2)C1` [Example 296, 4-(4-{[2-(4-chlorophenyl)-4,4-dimethylcyclohex-1-en-1-yl]methyl}piperazin-1-yl)-2-(1H-indol-5-yloxy)-N-{[3-nitro-4-(2-tetrahydro-2H-pyran-4-ylethyl)phenyl]sulfonyl}benzamide]: the Ki is 0.651 nM at GST-Bcl-2 and greater than 660 nM on GST-Bcl-XL. Besides, in the experiment on FL5.12/Bcl-2 cells, the EC50 amounted to 182 nM.
For `COCCOCCNc1ccc(S(=O)(=O)NC(=O)c2ccc(N3CCN(CC4=C(c5ccc(Cl)cc5)CC(C)(C)CC4)CC3)cc2Oc2ccc3[nH]ccc3c2)cc1[N+](=O)[O-]` [Example 298, 4-(4-{[2-(4-chlorophenyl)-4,4-dimethylcyclohex-1-en-1-yl]methyl}piperazin-1-yl)-2-(1H-indol-5-yloxy)-N-[(4-{[2-(2-methoxyethoxy)ethyl]amino}-3-nitrophenyl)sulfonyl]benzamide], in that order: 0.315 nM, 446 nM and 19.5 nM.
Taken in the same sequence, the figures for `CC1(C)CCC(CN2CCN(c3ccc(C(=O)NS(=O)(=O)c4ccc(NC5CCS(=O)(=O)C5)c([N+](=O)[O-])c4)c(Oc4cccc5[nH]ccc45)c3)CC2)=C(c2ccc(Cl)cc2)C1` (stereo not drawn) [Example 299, 4-(4-{[2-(4-chlorophenyl)-4,4-dimethylcyclohex-1-en-1-yl]methyl}piperazin-1-yl)-N-({4-[(1,1-dioxidotetrahydrothien-3-yl)amino]-3-nitrophenyl}sulfonyl)-2-(1H-indol-4-yloxy)benzamide] were 0.425 nM, 246 nM and 77.2 nM.
Taken in the same sequence, the figures for `CC1(C)CCC(CN2CCN(c3ccc(C(=O)NS(=O)(=O)c4ccc(NCC5CCS(=O)(=O)CC5)c([N+](=O)[O-])c4)c(Oc4cccc5[nH]ccc45)c3)CC2)=C(c2ccc(Cl)cc2)C1` [Example 301, 4-(4-{[2-(4-chlorophenyl)-4,4-dimethylcyclohex-1-en-1-yl]methyl}piperazin-1-yl)-N-[(4-{[(1,1-dioxidotetrahydro-2H-thiopyran-4-yl)methyl]amino}-3-nitrophenyl)sulfonyl]-2-(1H-indol-4-yloxy)benzamide] were 0.291 nM, greater than 660 nM and 59.5 nM.
For `CC1(C)CCC(CN2CCN(c3ccc(C(=O)NS(=O)(=O)c4ccc(NCC(F)F)c([N+](=O)[O-])c4)c(Oc4ccc5[nH]ccc5c4)c3)CC2)=C(c2ccc(Cl)cc2)C1` [Example 302, 4-(4-{[2-(4-chlorophenyl)-4,4-dimethylcyclohex-1-en-1-yl]methyl}piperazin-1-yl)-N-({4-[(2,2-difluoroethyl)amino]-3-nitrophenyl}sulfonyl)-2-(1H-indol-5-yloxy)benzamide], the results for the Ki at GST-Bcl-2 and on GST-Bcl-XL were 0.504 nM and greater than 660 nM, respectively. For the same compound, the EC50 in the experiment with FL5.12/Bcl-2 cells stood at 32.4 nM.
Taken in the same sequence, the figures for `CC1(C)CCC(CN2CCN(c3ccc(C(=O)NS(=O)(=O)c4ccc(NCC5CCOCC5)c(S(=O)(=O)C(F)(F)F)c4)c(Oc4cccc5[nH]ccc45)c3)CC2)=C(c2ccc(Cl)cc2)C1` [Example 303, 4-(4-{[2-(4-chlorophenyl)-4,4-dimethylcyclohex-1-en-1-yl]methyl}piperazin-1-yl)-2-(1H-indol-4-yloxy)-N-({4-[(tetrahydro-2H-pyran-4-ylmethyl)amino]-3-[(trifluoromethyl)sulfonyl]phenyl}sulfonyl)benzamide] were 1.48 nM, greater than 660 nM and greater than 500 nM.
For the compound `CC1(C)CCC(CN2CCN(c3ccc(C(=O)NS(=O)(=O)c4ccc(NC5CCC(F)(F)CC5)c([N+](=O)[O-])c4)c(Oc4ccc5[nH]ccc5c4)c3)CC2)=C(c2ccc(Cl)cc2)C1` [Example 305, 4-(4-{[2-(4-chlorophenyl)-4,4-dimethylcyclohex-1-en-1-yl]methyl}piperazin-1-yl)-N-({4-[(4,4-difluorocyclohexyl)amino]-3-nitrophenyl}sulfonyl)-2-(1H-indol-5-yloxy)benzamide], the Ki was 3.68 nM on GST-Bcl-2 and greater than 660 nM at GST-Bcl-XL. Besides, the EC50 in the experiment on FL5.12/Bcl-2 cells is greater than 500 nM.
Take `CC1(C)CCC(CN2CCN(c3ccc(C(=O)NS(=O)(=O)c4ccc(OCC5(F)CCOCC5)c([N+](=O)[O-])c4)c(Oc4cccc5[nH]ccc45)c3)CC2)=C(c2ccc(Cl)cc2)C1` [Example 306, 4-(4-{[2-(4-chlorophenyl)-4,4-dimethylcyclohex-1-en-1-yl]methyl}piperazin-1-yl)-N-({4-[(4-fluorotetrahydro-2H-pyran-4-yl)methoxy]-3-nitrophenyl}sulfonyl)-2-(1H-indol-4-yloxy)benzamide]: the results for the Ki on GST-Bcl-2 and at GST-Bcl-XL were 0.077 nM and 47.9 nM, respectively. Besides, the EC50 in the experiment with FL5.12/Bcl-2 cells is 7.16 nM.
Taken in the same sequence, the figures for `CC(C)n1cc(CN2CCN(c3ccc(C(=O)NS(=O)(=O)c4ccc(NCC5CCOCC5)c([N+](=O)[O-])c4)c(Oc4ccc5[nH]ccc5c4)c3)CC2)c(-c2ccc(Cl)cc2)cc1=O` [Example 307, 4-(4-{[4-(4-chlorophenyl)-1-isopropyl-6-oxo-1,6-dihydropyridin-3-yl]methyl}piperazin-1-yl)-2-(1H-indol-5-yloxy)-N-({3-nitro-4-[(tetrahydro-2H-pyran-4-ylmethyl)amino]phenyl}sulfonyl)benzamide] were 3.73 nM, greater than 660 nM and greater than 500 nM.
Taken in the same sequence, the figures for `CC1(C)CCC(CN2CCN(c3ccc(C(=O)NS(=O)(=O)c4ccc(C(=O)NCC5CCOCC5)cc4)c(Oc4ccc5[nH]ccc5c4)c3)CC2)=C(c2ccc(Cl)cc2)C1` [Example 308, 4-(4-{[2-(4-chlorophenyl)-4,4-dimethylcyclohex-1-en-1-yl]methyl}piperazin-1-yl)-2-(1H-indol-5-yloxy)-N-[(4-{[(tetrahydro-2H-pyran-4-ylmethyl)amino]carbonyl}phenyl)sulfonyl]benzamide] were 57.4 nM, greater than 660 nM and greater than 500 nM.
With `COCCNc1ccc(S(=O)(=O)NC(=O)c2ccc(N3CCN(CC4=C(c5ccc(Cl)cc5)CC(C)(C)CC4)CC3)cc2Oc2cccc3[nH]ccc23)cc1S(=O)(=O)C(F)(F)F` [Example 309, 4-(4-{[2-(4-chlorophenyl)-4,4-dimethylcyclohex-1-en-1-yl]methyl}piperazin-1-yl)-2-(1H-indol-4-yloxy)-N-({4-[(2-methoxyethyl)amino]-3-[(trifluoromethyl)sulfonyl]phenyl}sulfonyl)benzamide], the values for the Ki at GST-Bcl-2 and on GST-Bcl-XL were 4.42 nM and greater than 660 nM, respectively. For the same compound, the EC50 in the experiment with FL5.12/Bcl-2 cells is greater than 500 nM.
`CC1(C)CCC(CN2CCN(c3ccc(C(=O)NS(=O)(=O)c4ccc(NC[C@H]5CC[C@H](O)CC5)c([N+](=O)[O-])c4)c(Oc4ccc5[nH]ccc5c4)c3)CC2)=C(c2ccc(Cl)cc2)C1` [Example 310, Trans-4-(4-{[2-(4-chlorophenyl)-4,4-dimethylcyclohex-1-en-1-yl]methyl}piperazin-1-yl)-N-[(4-{[(4-hydroxycyclohexyl)methyl]amino}-3-nitrophenyl)sulfonyl]-2-(1H-indol-5-yloxy)benzamide]: the Ki on GST-Bcl-2 was 0.049 nM; at GST-Bcl-XL, greater than 660 nM. For the same compound, the EC50 with FL5.12/Bcl-2 cells amounted to 4.51 nM.
For `CO[C@H]1CC[C@H](CNc2ccc(S(=O)(=O)NC(=O)c3ccc(N4CCN(CC5=C(c6ccc(Cl)cc6)CC(C)(C)CC5)CC4)cc3Oc3ccc4[nH]ccc4c3)cc2[N+](=O)[O-])CC1` [Example 311, Trans-4-(4-{[2-(4-chlorophenyl)-4,4-dimethylcyclohex-1-en-1-yl]methyl}piperazin-1-yl)-2-(1H-indol-5-yloxy)-N-[(4-{[(4-methoxycyclohexyl)methyl]amino}-3-nitrophenyl)sulfonyl]benzamide], the Ki at GST-Bcl-2 was 0.26 nM; at GST-Bcl-XL it was greater than 660 nM. In addition, the EC50 with FL5.12/Bcl-2 cells was 33.4 nM.
Taken in the same sequence, the figures for `CC1(C)CCC(CN2CCN(c3ccc(C(=O)NS(=O)(=O)c4ccc(NC[C@H]5CC[C@@H](O)CC5)c([N+](=O)[O-])c4)c(Oc4ccc5[nH]ccc5c4)c3)CC2)=C(c2ccc(Cl)cc2)C1` [Example 312, Cis-4-(4-{[2-(4-chlorophenyl)-4,4-dimethylcyclohex-1-en-1-yl]methyl}piperazin-1-yl)-N-[(4-{[(4-hydroxycyclohexyl)methyl]amino}-3-nitrophenyl)sulfonyl]-2-(1H-indol-5-yloxy)benzamide] were 0.34 nM, greater than 660 nM and 19.2 nM.
Taken in the same sequence, the figures for `CO[C@H]1CC[C@@H](CNc2ccc(S(=O)(=O)NC(=O)c3ccc(N4CCN(CC5=C(c6ccc(Cl)cc6)CC(C)(C)CC5)CC4)cc3Oc3ccc4[nH]ccc4c3)cc2[N+](=O)[O-])CC1` [Example 313, Cis-4-(4-{[2-(4-chlorophenyl)-4,4-dimethylcyclohex-1-en-1-yl]methyl}piperazin-1-yl)-2-(1H-indol-5-yloxy)-N-[(4-{[(4-methoxycyclohexyl)methyl]amino}-3-nitrophenyl)sulfonyl]benzamide] were 0.044 nM, 66 nM and 82.9 nM.
